A word on the IC50: it is the concentration that inhibits the measured activity by half.

One assay concerns the target T1, RNA polymerase II (Homo sapiens, UniProt P24928).
T1 construct: nuclei were isolated from normally growing untreated HCT-116 cells and treated with each of these agents; endogenous in cells; host or cells: nuclei of HCT-116 colon cancer cells
As to the kind of experiment: Nuclear run-on assay, nuclei isolated from untreated HCT-116 cells then treated. The class given is biochemical. The settings on record: 50 μM ARC, 50 μM DRB or 2 μg/ml α-amanitin. Here is the method:
(§1) Run-on assays with isolated nuclei were performed as described. Briefly, cells treated with the indicated agents were lysed with hypotonic buffer (10 mM Tris-HCl pH 7.4, 10 mM NaCl and 35 mM MgCl2) and nuclei collected by centrifugation and resuspended in nuclear storage buffer (50 mM HEPES pH 8.0, 5 mM MgCl2, 0.5 mM DTT, 1 mg/ml BSA and 25% (v/v) glycerol) at about 5×10^8 nuclei/ml and stored at −80° C. Transcription reactions were performed in 200 μl volume consisting of 1×10^7 nuclei in the presence of 0.12 M KCl, 7 mM Mg(Ac)2, 25 μCi of [^32P]GTP, 500 μM ATP, UTP and CTP at 30° C. Samples were collected at various time points (18 μl/time point—0, 5, 10, 20 and 30 min) and the reaction terminated by the addition of 57 μl of Sarkosyl solution (1% Sarkosyl, 0.1 M Tris pH 8.0, 0.1 M NaCl, 10 mM EDTA and 200 μg/ml tRNA). The stopped reactions were transferred to Whatman DE81 paper, and washed four times with wash buffer (5% K2HPO4 and 0.3% Na4P2O7) for 10 min, followed by a 5-min water wash. Then the paper was briefly rinsed with 95% ethanol and allowed to dry completely. Radiation was quantitated using a liquid scintillation counter.
In order to evaluate the ability of ARC to bind to and inhibit RNA polymerase II directly (like α-amanitin) or indirectly (like DRB), nuclei were isolated from normally growing untreated HCT-116 cells and treated with each of these agents, and then assayed for rate of transcription by nuclear run-on assay.

Assay [1] has as its system RNA polymerase II transcription. As to the kind of experiment: Nuclear run-on assay, nuclei from treated HCT-116 cells. The class given is cell-based, human. The note with it: HCT-116 cells treated 2 hours with 1 mM. How it is done:
as §1
Some transcriptional inhibitors such as DRB and flavopiridol repress p21 and hdm2 while increasing p53 levels. […] To evaluate this activity, HCT-116 cells were treated with one of DMSO (control), ARC or DRB, and nuclei were isolated. These nuclei were assayed for rate of transcription either in the presence or absence of α-amanitin using the nuclear run-on assay. […] If ARC inhibits polymerase I and III transcription, the rate of transcription should be substantially lower in the ARC+α-amanitin (FIG. 2A; curve 5) when compared with DMSO+α-amanitin (FIG. 2A; curve 4). However both of these rates of transcription were similar, implying that ARC might preferentially affect only RNA polymerase II transcription.

In assay [2] the test system is LIM1215 colon cancer cells. In words: Apoptosis by PI staining and flow cytometry in LIM1215 cells. Format: cell-based, human. The note with it: 50 μM, 48 hours. Here is the method: For Flow Cytometry, cells were fixed in 70% ethanol and stored at −20° C. until further analysis. Equal numbers of fixed cells were then stained with PI solution (0.1% Triton X-100, 0.2 mg/ml DNase free RNase, 0.02 mg/ml propidium iodide) made in PBS for 15 min at 37° C. and analyzed by a flow cytometer.
In order to evaluate the extent to which ARC induces apoptosis relative to that of the other known nucleoside analog DRB, LIM1215 colon cancer cells were treated with either ARC or DRB for 48 hours.
In general terms: A flow cytometer gives signals particle by particle.

Assay [3] concerns HUVECs. The settings on record: literature value [28]; read-out: IC50, cord formation; cited from earlier work.
In assay [4] the test system is HUVECs. The note with it: literature value [28]; read-out: IC50, cell motility; cited from earlier work.
For the next assay, the system named is p53. As to the kind of experiment: Gel shift assay with nuclear extracts and p53 consensus probe. The class given is cell-based, human. The note with it: MCF-7 nuclear extracts. Here is the method:
Either purified p53 protein or nuclear extracts were used in the gel shift assays. For preparation of nuclear extracts, cells treated either with DMSO or different agents (doxorubicin, ARC and actinomycin D) were harvested 24 hours later and lysed in hypotonic buffer (10 mM HEPES pH 7.9, 1.5 mM MgCl2, 10 mM KCl, 0.2 mM PMSF, 0.5 mM DTT, 1 mM Na3VO4, 1 mM NaF, 1 mM Aprotinin and 1 mM Leupeptin), nuclei pelleted and treated with high-salt buffer (20 mM HEPES pH 7.9, 20% (v/v) glycerol, 1.5 mM MgCl2, 0.5 M KCl, 0.2 mM EDTA, 0.2 mM PMSF, 0.5 mM DTT, 1 mM Na3VO4, 1 mM NaF, 1 mM Aprotinin and 1 mM Leupeptin). Nuclear extracts (10 μg) or purified p53 protein (100 ng) were incubated with 0.5 ng of p53 consensus double-stranded oligos (5′-TACAGAACATGTCTAAGCATGCTGGGGACT-3′; Santa Cruz Biotechnology) that were labeled with [γ^32P]ATP. As a control, anti-p53 antibody (PAb421, EMD Biosciences) was used to supershift the p53/DNA complex. The reaction mixtures were resolved on a 4% acrylamide DNA-retardation gel, dried and exposed to X-ray film in the presence of intensifying screen.
Although the effects of ARC were p53-independent, ARC did affect some properties of p53. […] This is in contrast to actinomycin D, which is known to enhance the DNA binding ability of p53 [22]. […] To determine if ARC retains p53 in the cytoplasm, which may lead to decreased binding in the gel shift assays, p53 levels in nuclear lysates were examined.
A general note: A gel shift assay detects complexes by their altered migration in electrophoresis.

SMILES strings stand for the structures. Read-outs that look alike come from different tables or passages of the source. Starred links: 1 amine or outer side, 2 acyl side, 3 side chain; linkers in the order of their positions; H or OH if unused. Positions of bridges follow the written chain, without caps; N, C: chain ends. Non-standard residues stand in square brackets, D forms with d. Residues, ends and D or L forms follow the SMILES beside them. Chains are numbered I, II in the order given. Actinocin(9to1) = Cc1c2oc3c(C)ccc(C(=O)[*:1])c3nc-2c(C(=O)[*:2])c(N)c1=O; NMeV = CN[C@H](C(=O)O)C(C)C; Sar = CNCC(=O)O

Consider `CC[C@H](C)[C@@H]1NC(=O)CNC(=O)[C@@H]2Cc3c([nH]c4cc(O)ccc34)[S+]([O-])C[C@@H](NC(=O)CNC1=O)C(=O)N[C@@H](CC(N)=O)C(=O)N1C[C@H](O)C[C@H]1C(=O)N[C@@H]([C@@H](C)[C@@H](O)CO)C(=O)N2` (stereo in doubt) [α-amanitin], for which the “rate of transcription, agent added to isolated nuclei” value at RNA polymerase II is given as “dramatically inhibited transcription”.

In the case of `OC[C@H]1O[C@@H](n2cnc3cc(Cl)c(Cl)cc32)[C@H](O)[C@@H]1O` [DRB, 5,6-Dichloro-1-β-ribofuranosylbenzimidazole, reference compound], the “rate of transcription versus control nuclei” value in assay [1] is listed as “lower”. Also, the “rate of transcription, agent added to isolated nuclei” value on RNA polymerase II is listed as “did not affect the rate of transcription”. Further, the “apoptosis (PI staining, flow cytometry)” value in assay [2] worked out at 23.4%.

Regarding `CO[C@@H]1[C@H](OC(=O)NC(=O)CCl)CC[C@]2(CO2)[C@H]1[C@@]1(C)O[C@@H]1CC=C(C)C` [TNP-470], the 50% inhibitory concentration (IC50) with HUVECs [3] is roughly 700 nM; in the assay with HUVECs [4], roughly 600 nM.

Take `Cc1c2oc3c(C)ccc(C(=O)N[C@@H]4C(=O)N[C@H](C(C)C)C(=O)N5CCC[C@H]5C(=O)N(C)CC(=O)N(C)[C@@H](C(C)C)C(=O)O[C@@H]4C)c3nc-2c(C(=O)N[C@@H]2C(=O)N[C@H](C(C)C)C(=O)N3CCC[C@H]3C(=O)N(C)CC(=O)N(C)[C@@H](C(C)C)C(=O)O[C@@H]2C)c(N)c1=O` [actinomycin D, reference compound] (I: T[dV]P[Sar][NMeV] / II: T[dV]P[Sar][NMeV]; ester I:1-I:C, II:1-II:C; linker I:N-II:N via Actinocin(9to1)): the “DNA binding ability of p53, agent alone” value in the assay with p53 is on record as “increased the DNA binding ability of p53”.
